# According to ChEMBL document CHEMBL5550103, “Design, synthesis, and antiviral activity of 1-aryl-4-arylmethylpiperazine derivatives as Zika virus inhibitors with broad antiviral spectrum” (Bioorg Med Chem, 2024):
# Calls of active or inactive are those of the source. The calls are words filed in the database; no cut-off is given here.
# Tests used:
# [1] = system: Zika virus; experiment: Antiviral activity against ZIKV infected in HUVECs pre-infected with virus followed by compound addition and measured after 48 hrs by qRT-PCR analysis; assay type: functional, organism-based; settings: HUVEC
# [2] = Selectivity index, ratio of CC50 for HUVECs to EC50 for ZIKA virus infected in HUVECs; assay type: toxicity; settings: human, HUVEC cells; read-out: Ratio CC50/EC50
# [3] = Cytotoxicity against HUVECs assessed as reduction in cell viability incubated for 48 hrs by CCK-8 method; assay type: toxicity, cell-based; settings: human, HUVEC cells
# [4] = Cytotoxicity against HUVECs assessed as reduction in cell viability at 5 uM incubated for 48 hrs by CCK-8 method relative to control; assay type: toxicity, cell-based; settings: human, HUVEC cells, values are per cent of control
# [5] = system: Zika virus; experiment: Antiviral activity against ZIKV infected in HUVECs at 5 uM pre-infected with virus followed by compound addition and measured after 48 hrs by qRT-PCR analysis relative to control; assay type: functional; settings: HUVEC
# [6] = Metabolic stability in mouse liver microsomes assessed as half life preincubated with NADPH for 10 mins followed by compound addition and measured upto 30 mins by LC-MS/MS analysis; assay type: ADME, Microsome; settings: time < 40 min
# [7] = Metabolic stability in human liver microsomes assessed as half life preincubated with NADPH for 10 mins followed by compound addition and measured upto 30 mins by LC-MS/MS analysis; assay type: ADME, Microsome; settings: time < 40 min
# [8] = system: Zika virus; experiment: Antiviral activity against ZIKV infected in HUVECs assessed as inhibition of viral replication at 10 uM pretreated with cells for 1 hr followed by viral infection for 1 hr prior to compound washout and measured after 48 hrs post infection by qRT-PCR analysis; assay type: functional, organism-based; settings: HUVEC, time 2.0 hrs
# [9] = system: Zika virus; experiment: Antiviral activity against ZIKV infected in HUVECs assessed as reduction in NS5 protein level at 1 uM measured after 48 hrs by Western blot analysis; assay type: functional, organism-based; settings: HUVEC
# [10] = system: Zika virus; experiment: Antiviral activity against ZIKV infected in HUVECs assessed as inhibition of viral replication at 10 uM pre-infected with virus for 1 hr prior to compound addition for 1 hr followed by compound washout and measured after 48 hrs post infection by qRT-PCR analysis; assay type: functional, organism-based; settings: HUVEC
# [11] = system: Human coronavirus OC43; experiment: Antiviral activity against Human coronavirus OC43 infected in BHK-21 cells assessed as inhibition of viral replication pre-infected with virus for 24 hrs followed by compound addition and measured after 48 hrs by luciferase assay; assay type: functional, organism-based; settings: Betacoronavirus 1, BHK-21
# [12] = system: Influenza A virus; experiment: Antiviral activity against influenza A virus infected in HEK293T cells assessed as inhibition of viral replication pre-infected with virus followed by compound addition and measured after 24 hrs by luciferase assay; assay type: functional, organism-based; settings: HEK-293T
# [13] = system: Zika virus; experiment: Antiviral activity against ZIKV infected in HUVECs assessed as inhibition of viral replication at 10 uM incubated for 1 hr with subsequent addition of virus followed by compound washout and measured after 48 hrs post infection by qRT-PCR analysis; assay type: functional, organism-based; settings: HUVEC
# [14] = system: HEK-293T; experiment: Cytotoxicity against HEK293T cells assessed as reduction in cell viability at >10 uM measured after 24 hrs by CCK-8 method; assay type: toxicity, cell-based; settings: human
# [15] = system: Zika virus; experiment: Antiviral activity against ZIKV infected in HUVECs assessed as reduction in viral attachment to AXL; assay type: functional, organism-based; settings: HUVEC
# [16] = system: Zika virus; experiment: Antiviral activity against ZIKV infected in HUVECs assessed as reduction in NS5 protein level measured after 48 hrs by Western blot analysis; assay type: functional, organism-based; settings: HUVEC, dose 0.625-5 µM
Compound,EC50 [1] [nM],selectivity ratio [2],CC50 at 48 h [3] [µM],"viability, % of control at 48 h, 5 µM [4] [%]",inhibition at 5 µM [5] [%],further results
CN1CCC2(CC1)CCN(c1ccnc(CN3CCN(c4ccc(Cl)cc4)CC3)c1)C2,590,54,31.5,,,
CN1CCC2(CC1)CCN(c1ccnc(CN3CCN(c4ccc(C(F)(F)F)cc4)CC3)c1)C2,2180,14,30.4,,,
Cc1ccc(N2CCN(Cc3cc(N(C)CCN(C)C)ccc3C(F)(F)F)CC2)cc1,,,,103,< 10,
CN1CC2CN(c3ccnc(CN4CCN(c5ccc(Cl)cc5)CC4)c3)CC2C1 (stereo not drawn),1220,> 41,> 50,,,
CN(C)CCN(C)c1ccc(C#N)c(CN2CCN(c3ccc(Cl)cc3)CC2)c1,2190,9,19.8,,,half-life [6]: 32.9 min; half-life [7]: > 91.6 min
CN(C)CCN(C)c1ccc(C(F)(F)F)c(CN2CCN(c3ccc(Cl)cc3)CC2)c1,1130,20,22.4,,,
C#C[C@@]1(O)[C@H](O)[C@@H](CO)O[C@H]1n1ccc2c(N)ncnc21,,,,,,Activity [8]: inactive; Activity [9]: Active; Activity [10]: Active
CN(C)CCN(CCN(C)C)c1ccnc(CN2CCN(c3ccc(C(F)(F)F)cc3)CC2)c1,,,,104,< 10,
CN(C)CCN(C)c1ccnc(CN2CCN(c3ccc(C(F)(F)F)cc3)CC2)c1,,,,103,33,
Cc1ccc(N2CCN(Cc3cc(N4CCCN(C)CC4)ccn3)CC2)cc1,,,,105,< 10,
Clc1ccc(N2CCN(Cc3cc(N4CCC5(CCCN5Cc5ccccc5)C4)ccn3)CC2)cc1 (stereo not drawn),,,,91,49,
Cc1ccc(N2CCN(Cc3cc(N4CCCN5CCCC5C4)ccn3)CC2)cc1 (stereo not drawn),,,,100,< 10,
Clc1ccc(N2CCN(Cc3cc(N4CC5CN(Cc6ccccc6)CC5C4)ccn3)CC2)cc1 (stereo not drawn),2010,> 25,> 50,,,
CN1CCC2(CC1)CCN(c1ccc(C(F)(F)F)c(CN3CCN(c4ccc(C(F)(F)F)cc4)CC3)c1)C2,590,4,2.27,,,
CN(C)CCN(C)c1ccc(C(F)(F)F)c(CN2CCN(c3ccc(C(F)(F)F)cc3)CC2)c1,2930,5,14.7,,,
CN1CCCN(c2ccc(C(F)(F)F)c(CN3CCN(c4ccc(C(F)(F)F)cc4)CC3)c2)CC1,930,11,9.89,,,
CN(C)CCN(C)c1ccc(C(F)(F)F)c(CN2CCN(c3ccncc3)CC2)c1,,,,107,< 10,
Cc1ccc(N2CCN(Cc3cc(N(C)CCN(C)CCN(C)C)ccc3C(F)(F)F)CC2)cc1,,,,98,< 10,
Cc1ccc(N2CCN(Cc3cc(N(C)CCN(C)C)ccn3)CC2)cc1,,,,101,< 10,
CN(C)CCN(C)CCN(C)c1ccc(C(F)(F)F)c(CN2CCN(c3ccncc3)CC2)c1,390,> 128,> 50,,,Activity [8]: Active; EC50 [11]: 2280 nM; half-life [6]: 139 min; EC50 [12]: 2690 nM; Activity [13]: Active; Activity [14]: Toxic; Activity [15]: inactive; half-life [7]: > 91.6 min; Activity [16]: Dose-Dependent Effect; Activity [10]: inactive
CN(C)CCN(C)CCN(C)c1ccnc(CN2CCN(c3ccc(Cl)cc3)CC2)c1,870,> 58,> 50,,,
CN(C)CCN(C)c1ccnc(CN2CCN(c3ccc(Cl)cc3)CC2)c1,950,> 52,> 50,,,
CN1CCN(c2ccnc(CN3CCN(c4ccc(Cl)cc4)CC3)c2)CC1,1460,> 34,> 50,,,
Cc1ccc(N2CCN(Cc3cc(N4CCCN(C)CC4)ccc3C(F)(F)F)CC2)cc1,,,,105,< 10,
Clc1ccc(N2CCN(Cc3cc(N4CCC5(CCN(Cc6ccccc6)CC5)C4)ccn3)CC2)cc1,150,138,20.7,,,
CN1CCCN(c2ccnc(CN3CCN(c4ccc(C(F)(F)F)cc4)CC3)c2)CC1,1320,66,> 50,,,
CN1CC2(CCN(c3ccnc(CN4CCN(c5ccc(Cl)cc5)CC4)c3)C2)C1,820,> 61,> 50,,,Activity [8]: Active; EC50 [11]: 2200 nM; half-life [6]: 83.9 min; EC50 [12]: 2600 nM; Activity [13]: Active; Activity [14]: Toxic; Activity [15]: inactive; half-life [7]: > 91.6 min; Activity [16]: Dose-Dependent Effect; Activity [10]: inactive
NC(=O)c1ncn([C@@H]2O[C@H](CO)[C@@H](O)[C@H]2O)n1 [RIBAVIRIN],2550,> 59,> 150,,,
Cc1ccc(N2CCN(Cc3cc(N4CCC5(CCN(C)CC5)C4)ccn3)CC2)cc1,,,,100,< 10,
